The nature of series [1]: Influencing factor stability study. Type of series: physicochemical. Here is the method:
Samples of the crystal forms D, E, and H were spread in open containers and left to stand under light exposure (4500 Lux), high temperature (40 °C and 60 °C), and high humidity (RH 75% and RH 92.5%) conditions for 1 month to investigate their stability.

A short description of series [2]: DVS (dynamic vapor sorption) hygroscopicity testing. Type of series: physicochemical. The text has this: According to the description of hygroscopicity characteristics and the definition of hygroscopic weight gain in "General Rule 9103, Guidelines for Hygroscopicity Trials for Pharmaceuticals" in the Chinese Pharmacopoeia, Volume IV, 2015 Edition: • deliquescent: sufficient water is absorbed to form a liquid; • extremely hygroscopic: the hygroscopic weight gain is not less than 15%; • hygroscopic: the hygroscopic weight gain is less than 15% but not less than 2%; • slightly hygroscopic: the hygroscopic weight gain is less than 2% but not less than 0.2%; • nonhygroscopic or practically nonhygroscopic: the hygroscopic weight gain is less than 0.2%.
DVS refers to dynamic vapor sorption: The analysis was performed using SMS DVS Advantage; at 25 °C, the humidity was changed as follows: 50%-95%-0%-95%-50%, in steps of 10% (5% for the last step) (specific humidity ranges are shown in corresponding patterns, and those listed here were used in most cases); the criterion was dm/dt being not greater than 0.002%.

Series [3] is described as follows: Long-term/accelerated stability. Type of series: physicochemical. Here is the method: Samples of the crystal forms D, E, and H were left to stand under 25 °C/60% RH and 40 °C/75% RH conditions to investigate their stability: Table 30.
Series [4] has as its system HER2 wild-type Ba/F3 cells. As to the kind of experiment: Ba/F3 cell proliferation assay (Celltiter-Glo). Type of series: cell-based. The conditions noted are these: 72 h incubation. How it is done:
(§1) EGFR wild-type Ba/F3 cells (Cobioer, Cat. No. CBP73110) in the logarithmic growth phase were seeded into a 96-well plate at 2.5 × 10^3 cells/100 µL in a growth medium, and HER2 wild-type Ba/F3 cells (Cobioer, Cat. No. CBP73110) or HER2 A775_G776insYVMA mutant Ba/F3 cells (Cobioer, Cat. No. CBP73184) in the logarithmic growth phase were seeded into a 96-well plate at 5 × 10^3 cells/100 µL in a growth medium. The plates were placed in a cell incubator at 37 °C overnight. The next day, the compound diluted in a 3-fold gradient with a medium was added to the plates at 100 µL/well. All treatments were performed in triplicate. The plates were incubated in the cell incubator at 37 °C for another 72 h. Celltiter-Glo Luminescent cell viability assay was performed.
(§2) The cell proliferation rate corresponding to each well was calculated according to the following formula: proliferation% = (test compound well G3 - G0 average value)/(DMSO control well G3 average value - G0 average value) × 100. According to the proliferation rate and concentration corresponding to each gradient concentration well, a gradient curve for cell proliferation was fitted using Prism Graphpad software, and the GI50 (GI50 is defined as the compound concentration corresponding to a cell proliferation inhibition rate of 50%) of the compound was calculated.

The test system of series [5] is EGFR wild-type Ba/F3 cells. The series can be described thus: Ba/F3 cell proliferation assay (Celltiter-Glo). Type of series: cell-based. The conditions noted are these: 72 h incubation. How it is done:
as §1, §2
In general terms: In ATP-based viability assays light output follows the ATP content of the culture.

In series [6] the test system is HER2 A775_G776insYVMA mutant Ba/F3 cells. The series can be described thus: Ba/F3 cell proliferation assay (Celltiter-Glo). Type of series: cell-based. The conditions noted are these: 72 h incubation. Here is the method:
as §1, §2

`C=CC(=O)N1[C@@H]2CC[C@H]1C[C@@H](Oc1ccc3ncnc(Nc4ccc(Oc5ccn6ncnc6c5)c(C)c4F)c3c1)C2` [Crystal form H, 1-(endo-3-((4-((4-([1,2,4]Triazolo[1,5-a]pyridin-7-yloxy)-2-fluoro-3-methylphenyl)amino)quinazolin-6-yl)oxy)-8-azabicyclo[3.2.1]octan-8-yl)prop-2-en-1-one]: the Color and appearance entry is reported as “White powder” in series [1] (40 °C, 1 month); “White powder” in series [1] (40 °C, 7 days); “White powder” in series [1] (40 °C, 14 days); “White powder” in series [1] (60 °C, 1 month); “White powder” in series [1] (60 °C, 7 days); “White powder” in series [1] (60 °C, 14 days). The Color and appearance entry is listed as “White powder” in series [1] (75% RH, 1 month); “White powder” in series [1] (75% RH, 7 days); “White powder” in series [1] (75% RH, 14 days); “White powder” in series [1] (92.5% RH, 1 month); “White powder” in series [1] (92.5% RH, 7 days); “White powder” in series [1] (92.5% RH, 14 days). Further, the Color and appearance entry in series [1] (4500 Lux, 1 month) was “White powder”; in series [1] (4500 Lux, 7 days), “White powder”; in series [1] (4500 Lux, 14 days), “White powder”; in series [1] (Initial, 0), “White powder”; in series [3] (25 °C/60% RH, 1 month), “White powder”; in series [3] (25 °C/60% RH, 2 months), “White powder”. Further, the Color and appearance entry is listed as “White powder” in series [3] (25 °C/60% RH, 3 months); “White powder” in series [3] (25 °C/60% RH, 6 months); “White powder” in series [3] (25 °C/60% RH, 14 days); “White powder” in series [3] (40 °C/75% RH, 1 month); “White powder” in series [3] (40 °C/75% RH, 2 months); “White powder” in series [3] (40 °C/75% RH, 3 months). Also, the Color and appearance result in series [3] (40 °C/75% RH, 6 months) is reported as “White powder”; in series [3] (40 °C/75% RH, 14 days), “White powder”; in series [3] (Initial, 0), “White powder”. For the same molecule, the Crystal form result in series [1] (40 °C, 1 month) is recorded as “No change”; in series [1] (40 °C, 7 days) it was “No change”; in series [1] (40 °C, 14 days), “No change”; in series [1] (60 °C, 1 month), “No change”; in series [1] (60 °C, 7 days) it was “No change”; in series [1] (60 °C, 14 days), “No change”. Further, the Crystal form result in series [1] (75% RH, 1 month) is “No change”; in series [1] (75% RH, 7 days), “No change”; in series [1] (75% RH, 14 days) it was “No change”; in series [1] (92.5% RH, 1 month), “No change”; in series [1] (92.5% RH, 7 days), “No change”; in series [1] (92.5% RH, 14 days), “No change”. Besides, the Crystal form entry in series [1] (4500 Lux, 1 month) is given as “No change”; in series [1] (4500 Lux, 7 days), “No change”; in series [1] (4500 Lux, 14 days) it was “No change”; in series [1] (Initial, 0), “Crystal form H”; in series [3] (25 °C/60% RH, 1 month) it was “No change”; in series [3] (25 °C/60% RH, 2 months) it was “No change”. Further, the Crystal form result in series [3] (25 °C/60% RH, 3 months) is given as “No change”; in series [3] (25 °C/60% RH, 6 months), “No change”; in series [3] (25 °C/60% RH, 14 days) it was “No change”; in series [3] (40 °C/75% RH, 1 month), “No change”; in series [3] (40 °C/75% RH, 2 months), “No change”; in series [3] (40 °C/75% RH, 3 months), “No change”. Moreover, the Crystal form entry is “No change” in series [3] (40 °C/75% RH, 6 months); “No change” in series [3] (40 °C/75% RH, 14 days); “Crystal form H” in series [3] (Initial, 0). The “Purity (%)” value in series [1] (40 °C, 1 month) was found to be 99.4%; in series [1] (60 °C, 1 month), 99.4%; in series [1] (Initial, 0), 99.8%; in series [3] (Initial, 0) it was 99.8%. Moreover, the “physical and chemical stability” value is “Conclusion: Standing under light exposure (4500 Lux), high temperature (40 °C and 60 °C), and high humidity (RH 75% and RH 92.5%) conditions for 30 days, the crystal form H exhibited good physical and chemical stability” in series [1] (light exposure (4500 Lux), high temperature (40 °C and 60 °C), high humidity (RH 75% and RH 92.5%), 30 days); “Conclusion: Under long-term/accelerated conditions, the crystal form H exhibited good physical and chemical stability” in series [3] (long-term/accelerated conditions). Also, the hygroscopic weight gain result in series [2] (accelerated experimental conditions, 70% RH) is “about 0.12%”; in series [2] (extreme conditions, 90% RH), “about 0.22%”; in series [2] (normal storage conditions, 25 °C and 60% RH) it was “about 0.09%”.

For the molecule `C=CC(=O)N1[C@@H]2CC[C@H]1C[C@@H](Oc1ccc3ncnc(Nc4ccc(Oc5ccn6ncnc6c5)c(C)c4F)c3c1)C2` [Example 1, 1-(endo-3-((4-((4-([1,2,4]Triazolo[1,5-a]pyridin-7-yloxy)-2-fluoro-3-methylphenyl)amino)quinazolin-6-yl)oxy)-8-azabicyclo[3.2.1]octan-8-yl)prop-2-en-1-one], in series [4], the “HER2 WT/ BaF3 Imax %” value is listed as 100%. Also, the “EGFR WT/ BaF3 Imax %” value in series [5] was 100%. Also, the “HER2 A775_G776 ins YVMA/ BaF3 Imax %” value in series [6] was found to be 100%.

Turning to `Cc1cc(Nc2ncnc3ccc(NC4=NC(C)(C)CO4)cc23)ccc1Oc1ccn2ncnc2c1` [Tucatinib, reference compound], in series [6], the “HER2 A775_G776 ins YVMA/ BaF3 Imax %” value is on record as 100%.

The values above are taken from EP4786474A1, “CRYSTALLINE FORM OF QUINAZOLINE DERIVATIVE AND PREPARATION METHOD THEREFOR” (Jiangsu Hengrui Pharmaceuticals Co., Ltd., priority 2023, dated 2025).
